Where no end group is shown, it is not given here.
Target: T1, MN (Saccharomyces cerevisiae, UniProt P39731+P47149)
T1 construct: made in house; host or cells: E. coli BL21 (DE3)
T1 sequence (P39731 1-289): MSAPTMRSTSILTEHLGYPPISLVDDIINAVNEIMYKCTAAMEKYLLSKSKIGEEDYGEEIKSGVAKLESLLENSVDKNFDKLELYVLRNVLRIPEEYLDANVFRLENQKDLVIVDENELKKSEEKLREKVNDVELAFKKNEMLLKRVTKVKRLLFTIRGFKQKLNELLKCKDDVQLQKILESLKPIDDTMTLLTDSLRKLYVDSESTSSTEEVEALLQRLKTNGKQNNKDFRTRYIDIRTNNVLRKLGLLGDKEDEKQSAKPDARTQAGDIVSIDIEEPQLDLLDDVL
T1 sequence (P47149 1-201): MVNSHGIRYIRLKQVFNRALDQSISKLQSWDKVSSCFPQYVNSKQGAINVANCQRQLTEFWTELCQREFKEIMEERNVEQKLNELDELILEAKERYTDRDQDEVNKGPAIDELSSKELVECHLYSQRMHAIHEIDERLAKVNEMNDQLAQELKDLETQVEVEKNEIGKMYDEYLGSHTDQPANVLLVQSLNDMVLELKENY
Test: Isothermal titration calorimetry (ITC) with MN
Type: binding, budding yeast (S. cerevisiae)
Settings: summary of FP and ITC assays
Description: Figure 5 The Mif2 N‐terminus is prevented from high‐affinity Mtw1c binding in the full‐length molecule • Co‐purification of Strep‐Mtw1c through Flag‐Mif2 after co‐expression in insect cells. Proteins were detected by Western blotting using their respective tags. • Western blotting of elution fractions from an SEC experiment of Mif2‐wt or Mif2^Ame1‐N swap in the absence (upper panel) or presence (lower panel) of Mtw1c. • ITC analysis of Mif2^1‐41 or Ame1^1‐20 binding to MN. Experiments were performed 3 or 4 times, respectively. One representative binding curve is shown, whereas the KD value represents the average of all experiments. • Cross‐link (XL) MS analysis of the Mif2wt protein in isolation or bound to Cse4n using the cross‐linker Bis[sulfosuccinimidyl] glutarate. Mif2wt alone or in combination with Cse4n was subjected to analytical size‐exclusion chromatography at 10 μM concentration. The corresponding Coomassie‐stained SDS–PAGE gels of Mif2‐wt alone or in combination with Cse4n are shown. Fractions used for cross‐linking are highlighted. […]
The binding constant of Ame1 could only be indirectly measured in the FP competition assay, as labeling of Ame1 N‐terminal peptides rendered them insoluble. We therefore directly determined binding affinities of Mif2 and Ame1 N‐terminal peptides to MN using isothermal titration calorimetry (ITC). […]

dissociation constants for Mtw1 constructs: low micromolar range
Sequence: MDYMKLGLKSRKTGIDVKQDIPKDEYSMENIDDFFKDDETS [Mif2^1‐41]
